In PMC4111603 (PLoS ONE, 2014):

Assays:
[1] = molecular target: T1, human recombinant COX-2 (Homo sapiens, UniProt P35354); assay: COX-2 oxygenation of arachidonic acid, oxygen electrode; type: biochemical; conditions: for COX-2 activity (% of control): substrate AA 10 µM, initial activity 10-30 s, n = 3
T1 construct: purchased Cayman Chemical Co. 60122
T1 sequence (P35354 18-604): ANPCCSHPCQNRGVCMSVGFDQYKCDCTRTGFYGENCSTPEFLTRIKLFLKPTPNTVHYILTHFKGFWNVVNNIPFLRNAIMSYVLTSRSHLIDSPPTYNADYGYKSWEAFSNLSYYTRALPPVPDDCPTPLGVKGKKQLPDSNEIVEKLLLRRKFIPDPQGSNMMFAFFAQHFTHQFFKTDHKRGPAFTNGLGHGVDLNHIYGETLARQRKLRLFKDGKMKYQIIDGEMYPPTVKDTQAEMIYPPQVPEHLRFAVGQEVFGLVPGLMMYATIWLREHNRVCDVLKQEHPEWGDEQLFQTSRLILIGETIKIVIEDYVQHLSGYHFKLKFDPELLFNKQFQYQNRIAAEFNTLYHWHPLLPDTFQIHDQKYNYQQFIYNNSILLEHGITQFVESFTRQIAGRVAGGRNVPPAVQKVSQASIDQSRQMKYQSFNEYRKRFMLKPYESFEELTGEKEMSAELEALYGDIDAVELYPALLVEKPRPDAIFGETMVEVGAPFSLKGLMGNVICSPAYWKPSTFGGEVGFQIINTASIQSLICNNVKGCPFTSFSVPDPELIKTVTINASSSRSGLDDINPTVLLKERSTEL
Description: (§1) The assay was performed according to Meade et al. with minor modifications using an oxygen electrode chamber with integral stirring (Oxygraph System, Hansatech Instruments, King’s Lynn, U.K.). The electrode was calibrated to ambient temperature and air pressure. Samples were prepared in 0.1 M Tris-HCl buffer pH 7.4 containing 1 µM haematin, 2 mM phenol, 5 mM EDTA, 10 µM substrate (AA or 2-AG) (final assay volume was 2 ml). After addition of test substance dissolved in DMSO (final assay concentration 1%) a baseline was established for 5 min before initiation of reaction by addition of 200 units COX-1 or COX-2. Change in oxygen consumption was monitored for approximately 5 min.
(§2) FAAH inhibition was calculated using log(inhibitor) vs. response with variable slope (four parameters) algorithm in the GraphPad Prism computer program (GraphPad Software Inc., San Diego, CA. USA). […] The two curves were compared by Akaike’s informative criteria and the best fit was chosen. Initial COX activities were calculated as the change in oxygen tension between 10 and 30 seconds after addition of enzyme.

[2] = molecular target: T2, Ovine COX-1 (Ovis aries, UniProt P05979); assay: COX-1 oxygenation of arachidonic acid, oxygen electrode; type: biochemical; conditions: for COX-1 activity (% of control): 10 µM AA, initial activity 10-30 s, mean ± s.e.m., n = 3; for inhibition at 300 µM: 300 µM compound
T2 construct: purchased Cayman Chemical Co. 60100
T2 sequence (P05979 25-600): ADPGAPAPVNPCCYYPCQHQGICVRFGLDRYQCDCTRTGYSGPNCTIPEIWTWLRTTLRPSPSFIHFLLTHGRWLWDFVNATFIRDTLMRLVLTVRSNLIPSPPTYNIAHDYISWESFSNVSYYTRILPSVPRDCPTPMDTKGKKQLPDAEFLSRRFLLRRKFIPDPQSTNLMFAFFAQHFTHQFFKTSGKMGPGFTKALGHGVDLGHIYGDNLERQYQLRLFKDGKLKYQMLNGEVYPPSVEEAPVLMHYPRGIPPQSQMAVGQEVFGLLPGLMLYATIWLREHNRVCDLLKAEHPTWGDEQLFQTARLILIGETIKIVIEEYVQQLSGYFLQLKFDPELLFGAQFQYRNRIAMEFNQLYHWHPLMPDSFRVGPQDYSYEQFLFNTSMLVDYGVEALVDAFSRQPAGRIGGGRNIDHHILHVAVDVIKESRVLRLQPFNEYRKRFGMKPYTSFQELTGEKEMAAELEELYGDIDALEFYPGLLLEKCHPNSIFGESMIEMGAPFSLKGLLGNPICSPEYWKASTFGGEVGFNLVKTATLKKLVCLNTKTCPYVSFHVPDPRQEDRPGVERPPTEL
Description: as §1, §2

[3] = read-out: inhibition of COX-1-catalysed oxygenation of arachidonic acid

Row | COX-2 activity (% of control) ([1]; 100 µM NSAID) | COX-2 activity (% of control) ([1]; 300 µM NSAID) | COX-1 activity (% of control) ([2]; 100 µM NSAID) | COX-1 activity (% of control) ([2]; 300 µM NSAID) | inhibition at 300 µM [2, 3] | COX-1 activity (% of control) ([2]; 1000 µM NSAID) | inhibition of COX-2-catalysed oxygenation of arachidonic acid (result in words) [1] | COX-2 activity (% of control) ([1]; 30 µM NSAID) | inhibition at 100 µM ([2]; 100 µM compound, read-out: inhibition of COX-1-catalysed oxygenation of arachidonic acid) | inhibition at 1000 µM ([2]; 1000 µM compound, read-out: inhibition of COX-1-catalysed oxygenation of arachidonic acid) | SMILES
1 | 98±17 % of control | 83±12 % of control | 102±17 % of control | 91±5 % of control | 9% | 95±3 % of control | – | – | – | – | CC(C(=O)O)c1ccc(CC(C)(C)O)cc1 (stereo not shown) [2′-OH-Ibuprofen, 2-[4-(2-hydroxy-2-methylpropyl)phenyl]propionic acid]
2 | 103±21 % of control | 84±10 % of control | 81±16 % of control | 97±10 % of control | 3% | 68±15 % of control | – | – | – | – | CC(CO)Cc1ccc(C(C)C(=O)O)cc1 (stereo not shown) [3′-OH-Ibuprofen, 2-[4-(3-hydroxy-2-methylpropyl)phenyl]propionic acid]
3 | 106±16 % of control | 106±9 % of control | 97±31 % of control | 72±20 % of control | 28% | 6±6 % of control | failed to inhibit | 88±16 % of control | 3% | 94% | CC(C(=O)O)c1ccc(-c2ccc(O)cc2)c(F)c1 (stereo not shown) [4′-OH-Flurbiprofen]
